Activity calls are given as the source filed them. The calls are words filed in the database; no cut-off is given here.
Tests used:
[1] = target: T1, Progesterone receptor (Homo sapiens) (UniProt P06401); experiment: Agonist efficacy towards human progesterone receptor (hPR) using the cotransfection assay in CV-1 cells; type: functional, cell-based
T1 sequence (whole entry): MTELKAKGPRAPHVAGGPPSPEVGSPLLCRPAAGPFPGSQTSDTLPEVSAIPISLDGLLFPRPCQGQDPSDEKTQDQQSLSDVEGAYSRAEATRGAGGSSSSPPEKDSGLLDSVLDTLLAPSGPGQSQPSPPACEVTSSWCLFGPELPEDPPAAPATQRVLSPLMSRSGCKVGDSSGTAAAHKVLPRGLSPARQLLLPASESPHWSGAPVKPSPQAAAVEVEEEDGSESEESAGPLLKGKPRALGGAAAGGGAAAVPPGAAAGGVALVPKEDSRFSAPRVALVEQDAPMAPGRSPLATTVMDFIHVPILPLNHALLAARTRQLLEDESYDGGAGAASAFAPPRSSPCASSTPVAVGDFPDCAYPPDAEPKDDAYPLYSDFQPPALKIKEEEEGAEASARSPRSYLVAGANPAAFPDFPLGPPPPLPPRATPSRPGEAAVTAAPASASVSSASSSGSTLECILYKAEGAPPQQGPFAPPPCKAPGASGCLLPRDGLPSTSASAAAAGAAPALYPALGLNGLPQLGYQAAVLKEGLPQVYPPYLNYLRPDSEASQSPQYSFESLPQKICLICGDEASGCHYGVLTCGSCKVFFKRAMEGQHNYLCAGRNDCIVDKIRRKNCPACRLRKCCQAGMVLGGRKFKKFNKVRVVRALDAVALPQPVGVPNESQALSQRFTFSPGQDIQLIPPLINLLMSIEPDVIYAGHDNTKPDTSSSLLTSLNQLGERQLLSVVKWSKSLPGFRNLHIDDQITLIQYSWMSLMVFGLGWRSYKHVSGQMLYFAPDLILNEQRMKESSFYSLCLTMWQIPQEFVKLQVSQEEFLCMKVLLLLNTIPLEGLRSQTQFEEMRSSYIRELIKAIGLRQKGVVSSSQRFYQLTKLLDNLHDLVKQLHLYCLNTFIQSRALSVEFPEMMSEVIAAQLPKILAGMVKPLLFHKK

Progesterone receptor [2] = target: T2, Progesterone receptor (Homo sapiens, UniProt P06401); experiment: Effective concentration for agonist activity towards human progesterone receptor (hPR) using the cotransfection assay in CV-1 cells; type: functional, cell-based
T2 sequence (P06401 whole entry): T1 sequence (whole entry)

[3] = target: T1, Progesterone receptor (Homo sapiens); experiment: Antagonistic efficacy towards human progesterone receptor (hPR) using the cotransfection assay in CV-1 cells; Not active; type: functional, cell-based
Progesterone receptor [4] = target: T2, Progesterone receptor; experiment: Binding affinity to human progesterone receptor
Progesterone receptor [5] = target: T2, Progesterone receptor; experiment: Inhibitory concentration for antagonistic activity towards human progesterone receptor (hPR) using the cotransfection assay in CV-1 cells; Not active; type: functional, cell-based
[6] = target: T1, Progesterone receptor (Homo sapiens); experiment: Agonist efficacy towards human progesterone receptor (hPR) expressed in CV-1 cells; Not active; type: functional, cell-based
Progesterone receptor [7] = target: T2, Progesterone receptor; experiment: Effective concentration for agonist activity towards human progesterone receptor (hPR) expressed in CV-1 cells; Not active; type: functional, cell-based
[8] = target: T1, Progesterone receptor (Homo sapiens); experiment: Antagonistic efficacy towards human progesterone receptor (hPR) using the cotransfection assay in CV-1 cells; type: functional, cell-based
Progesterone receptor [9] = target: T2, Progesterone receptor; experiment: Inhibitory concentration for antagonistic activity towards human progesterone receptor (hPR) using the cotransfection assay in CV-1 cells; type: functional, cell-based
Progesterone receptor [10] = target: T2, Progesterone receptor; experiment: Inhibition of antagonist binding to human progesterone receptor (hPR); Not active
Androgen receptor = target: T3, Androgen receptor (Homo sapiens, UniProt P10275); experiment: Antagonist activity against human Androgen receptor; type: functional
T3 sequence (P10275 whole entry): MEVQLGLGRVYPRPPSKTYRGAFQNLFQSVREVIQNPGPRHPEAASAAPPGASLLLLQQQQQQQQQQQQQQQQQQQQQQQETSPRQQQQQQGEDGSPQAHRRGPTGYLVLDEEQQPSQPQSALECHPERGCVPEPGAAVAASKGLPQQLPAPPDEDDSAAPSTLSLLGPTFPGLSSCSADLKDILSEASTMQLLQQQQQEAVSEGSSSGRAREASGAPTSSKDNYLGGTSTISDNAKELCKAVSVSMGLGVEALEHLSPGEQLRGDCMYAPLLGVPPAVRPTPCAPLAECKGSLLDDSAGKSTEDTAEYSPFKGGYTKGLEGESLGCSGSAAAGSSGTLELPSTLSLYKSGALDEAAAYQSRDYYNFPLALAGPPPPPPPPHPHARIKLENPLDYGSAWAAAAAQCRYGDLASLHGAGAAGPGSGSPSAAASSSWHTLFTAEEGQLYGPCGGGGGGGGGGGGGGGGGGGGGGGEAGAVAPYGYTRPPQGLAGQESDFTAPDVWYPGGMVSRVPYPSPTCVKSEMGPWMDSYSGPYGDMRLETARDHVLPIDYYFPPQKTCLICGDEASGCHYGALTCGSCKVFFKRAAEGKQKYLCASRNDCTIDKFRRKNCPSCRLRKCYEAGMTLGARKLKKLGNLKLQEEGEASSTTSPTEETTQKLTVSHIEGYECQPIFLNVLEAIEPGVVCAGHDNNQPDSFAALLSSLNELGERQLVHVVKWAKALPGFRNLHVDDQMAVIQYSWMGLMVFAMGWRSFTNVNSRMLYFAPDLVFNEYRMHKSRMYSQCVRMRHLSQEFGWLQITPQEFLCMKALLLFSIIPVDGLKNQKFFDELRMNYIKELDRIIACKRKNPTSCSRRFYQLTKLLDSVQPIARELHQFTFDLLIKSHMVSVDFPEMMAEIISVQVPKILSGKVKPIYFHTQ

Glucocorticoid receptor = target: T4, Glucocorticoid receptor (Homo sapiens, UniProt P04150); experiment: Antagonist activity at glucocorticoid receptor; type: functional
T4 sequence (P04150 whole entry): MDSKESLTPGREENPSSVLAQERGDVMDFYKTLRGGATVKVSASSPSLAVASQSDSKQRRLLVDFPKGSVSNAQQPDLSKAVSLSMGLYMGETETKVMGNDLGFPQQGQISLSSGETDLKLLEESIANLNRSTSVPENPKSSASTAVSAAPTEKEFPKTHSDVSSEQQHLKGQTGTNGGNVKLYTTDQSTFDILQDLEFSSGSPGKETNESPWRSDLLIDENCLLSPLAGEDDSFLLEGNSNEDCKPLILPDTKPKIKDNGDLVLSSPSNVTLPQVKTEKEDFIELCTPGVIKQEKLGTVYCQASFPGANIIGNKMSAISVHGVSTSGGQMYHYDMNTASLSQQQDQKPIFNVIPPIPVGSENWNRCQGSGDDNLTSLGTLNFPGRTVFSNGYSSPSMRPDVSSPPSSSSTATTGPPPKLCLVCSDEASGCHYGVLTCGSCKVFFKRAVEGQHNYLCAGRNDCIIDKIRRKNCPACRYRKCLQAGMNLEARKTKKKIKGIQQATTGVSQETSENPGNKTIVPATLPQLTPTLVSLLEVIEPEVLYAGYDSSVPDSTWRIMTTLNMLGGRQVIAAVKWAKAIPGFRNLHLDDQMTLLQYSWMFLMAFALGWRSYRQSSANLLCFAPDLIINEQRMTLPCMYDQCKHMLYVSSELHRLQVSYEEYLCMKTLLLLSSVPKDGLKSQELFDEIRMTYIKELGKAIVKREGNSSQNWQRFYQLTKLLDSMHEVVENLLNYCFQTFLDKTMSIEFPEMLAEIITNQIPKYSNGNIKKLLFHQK

[11] = target: T5, Mineralocorticoid receptor (Homo sapiens, UniProt P08235); experiment: Antagonist activity at mineralocorticoid receptor (hMR); type: functional
T5 sequence (P08235 whole entry): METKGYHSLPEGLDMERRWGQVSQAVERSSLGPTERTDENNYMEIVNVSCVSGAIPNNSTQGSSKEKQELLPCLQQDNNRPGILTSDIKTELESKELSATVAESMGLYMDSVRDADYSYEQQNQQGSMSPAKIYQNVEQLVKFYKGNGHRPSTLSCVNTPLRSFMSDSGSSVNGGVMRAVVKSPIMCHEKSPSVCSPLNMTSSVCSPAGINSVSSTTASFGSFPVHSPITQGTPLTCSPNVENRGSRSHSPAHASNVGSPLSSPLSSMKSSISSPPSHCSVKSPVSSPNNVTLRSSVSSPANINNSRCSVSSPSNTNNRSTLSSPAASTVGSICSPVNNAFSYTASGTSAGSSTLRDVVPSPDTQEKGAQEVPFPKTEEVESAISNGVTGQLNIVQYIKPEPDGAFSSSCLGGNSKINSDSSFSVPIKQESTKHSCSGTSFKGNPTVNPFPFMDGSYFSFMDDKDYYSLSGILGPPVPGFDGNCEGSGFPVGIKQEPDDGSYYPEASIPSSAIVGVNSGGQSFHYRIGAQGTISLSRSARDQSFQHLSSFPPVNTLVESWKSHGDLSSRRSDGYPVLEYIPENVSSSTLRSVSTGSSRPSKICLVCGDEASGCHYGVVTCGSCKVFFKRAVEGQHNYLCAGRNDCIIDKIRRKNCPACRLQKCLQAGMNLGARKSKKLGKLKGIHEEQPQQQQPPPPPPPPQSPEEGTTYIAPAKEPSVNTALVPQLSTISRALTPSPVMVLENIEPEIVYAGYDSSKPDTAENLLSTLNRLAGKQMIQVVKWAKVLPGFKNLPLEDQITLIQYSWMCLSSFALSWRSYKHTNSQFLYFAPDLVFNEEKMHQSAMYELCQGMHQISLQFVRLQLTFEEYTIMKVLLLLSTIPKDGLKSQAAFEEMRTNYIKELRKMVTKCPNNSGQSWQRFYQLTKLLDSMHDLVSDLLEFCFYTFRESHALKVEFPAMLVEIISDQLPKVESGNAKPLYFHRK

[12] = target: T6, Mineralocorticoid receptor (Homo sapiens) (UniProt P08235); experiment: Antagonist efficacy at mineralocorticoid receptor (hMR); type: functional
T6 sequence (whole entry): T5 sequence (P08235 whole entry)

Compound	Efficacy [1]	EC50 (Progesterone receptor [2])	Efficacy [3]	Ki (Progesterone receptor [4])	IC50 (Progesterone receptor [5])	Efficacy [6]	EC50 (Progesterone receptor [7])	Efficacy [8]	IC50 (Progesterone receptor [9])	IC50 (Progesterone receptor [10])	IC50 (Androgen receptor)	IC50 (Glucocorticoid receptor)	IC50 [11]	Efficacy [12]
C=C(/C=C1\Oc2ccc(F)cc2-c2ccc3c(c21)C(C)=CC(C)(C)N3)C(C)C	122%	0.029 µM	inactive	0.026 µM	Not Active	–	–	–	–	–	–	–	–	–
CC1=CC(C)(C)Nc2ccc3c(c21)/C(=C/c1ccccc1C)Oc1ccccc1-3	–	–	inactive	–	Not Active	–	–	–	–	–	–	–	–	–
CC1=CC(C)(C)Nc2ccc3c(c21)C(=C(c1ccccc1)c1ccccc1)Oc1ccc(F)cc1-3	–	–	–	> 0.1 µM	–	inactive	Not Active	90%	1.93 µM	–	–	–	–	–
CC/C(C)=C1/Oc2ccc(F)cc2-c2ccc3c(c21)C(C)=CC(C)(C)N3	64%	0.027 µM	–	0.0167 µM	–	–	–	38%	0.98 µM	–	–	–	–	–
C=C1Oc2ccc(F)cc2-c2ccc3c(c21)C(C)=CC(C)(C)N3	87%	1 µM	inactive	0.0061 µM	Not Active	–	–	–	–	–	–	–	–	–
CC1=CC(C)(C)Nc2ccc3c(c21)/C(=C/C1CCCCC1)Oc1ccc(F)cc1-3	28%	0.048 µM	–	> 0.1 µM	–	–	–	70%	0.8 µM	–	–	–	–	–
CC1=CC(C)(C)Nc2ccc3c(c21)C(=C1SCCCS1)Oc1ccc(F)cc1-3	151%	0.0021 µM	inactive	–	Not Active	–	–	–	–	–	0.18 µM	0.146 µM	0.681 µM	92%

Further lines, with some results ahead:

Efficacy [1]	EC50 (Progesterone receptor [2])	Efficacy [3]	Ki (Progesterone receptor [4])	IC50 (Progesterone receptor [5])	Efficacy [6]	EC50 (Progesterone receptor [7])	Efficacy [8]	IC50 (Progesterone receptor [9])	IC50 (Progesterone receptor [10])	Compound	IC50 (Androgen receptor)	IC50 (Glucocorticoid receptor)	IC50 [11]	Efficacy [12]
90%	0.028 µM	inactive	0.0031 µM	–	–	–	–	–	Not Active	CCC/C=C1\Oc2ccc(F)cc2-c2ccc3c(c21)C(C)=CC(C)(C)N3	–	–	–	–
–	–	–	> 0.1 µM	–	inactive	Not Active	91%	0.124 µM	–	CC(=O)/C=C1\Oc2ccc(F)cc2-c2ccc3c(c21)C(C)=CC(C)(C)N3	–	–	–	–
–	–	–	> 0.1 µM	–	inactive	Not Active	97%	0.243 µM	–	CC1=CC(C)(C)Nc2ccc3c(c21)/C(=C/C=O)Oc1ccc(F)cc1-3	–	–	–	–
70%	2.7 µM	–	0.045 µM	–	–	–	75%	0.065 µM	–	CC1=CC(C)(C)Nc2ccc3c(c21)/C(=C/C#N)Oc1ccc(F)cc1-3	–	–	–	–
